Test results published in patent US20250129052A1, “PYRAZINE COMPOUNDS FOR THE CONTROL OF INVERTEBRATE PESTS” (priority 2021, published 2025).

Experiments:
Assay type in all cases: in vivo
[1] = test system: boll weevil (Anthonomus grandis); experiment: B.3 Boll weevil, insect diet with eggs in microtiter plates; settings: for mortality at 2500 ppm: 120 h, read-out: mortality in comparison with untreated controls; for mortality at 7.9 ppm: read-out: % mortality in comparison to untreated controls, B.3
Description: B.3 Boll Weevil (Anthonomus grandis)
For evaluating control of boll weevil (Anthonomus grandis), the test unit consisted of 96-well-microtiter plates containing an insect diet and 5-10 A. grandis eggs.
The compounds were formulated using a solution containing 75% v/v water and 25% v/v DMSO. Different concentrations of formulated compounds were sprayed onto the insect diet at 5 μl, using a custom-built micro atomizer, at two replications.
After application, microtiter plates were incubated at about 25±1° C. and about 75±5% relative humidity for 5 days. Egg and larval mortality was then visually assessed.

[2] = test system: yellow fever mosquito (Aedes aegypti); experiment: whole plant or invertebrate; settings: 48 h, 2 days, larval mortality, read-out: mortality in comparison with untreated controls
Description: B.5 Yellow Fever Mosquito (Aedes aegypti)
For evaluating control of yellow fever mosquito (Aedes aegypti) the test unit consisted of 96-well-microtiter plates containing 200 μl of tap water per well and 5-15 freshly hatched A. aegypti larvae.
The active compounds were formulated using a solution containing 75% (v/v) water and 25% (v/v) DMSO. Different concentrations of formulated compounds or mixtures were sprayed onto the insect diet at 2.5 μl, using a custom-built micro atomizer, at two replications.
After application, microtiter plates were incubated at 28±1° C., 80±5% RH for 2 days. Larval mortality was then visually assessed.

[3] = test system: green peach aphid (Myzus persicae); experiment: B.1 Green peach aphid, systemic, artificial diet in microtiter plates; settings: for mortality at 2500 ppm: 72 h, 3 days, aphid diet, read-out: mortality in comparison with untreated controls; for mortality at 9.9 ppm / mortality at 7.9 ppm: read-out: % mortality in comparison to untreated controls, B.1
Source text: B.1 Green Peach Aphid (Myzus persicae)
For evaluating control of green peach aphid (Myzus persicae) through systemic means, the test unit consisted of 96-well-microtiter plates containing liquid artificial diet under an artificial mem brane.
The compounds were formulated using a solution containing 75% v/v water and 25% v/v DMSO. Different concentrations of formulated compounds were pipetted into the aphid diet, using a custom built pipetter, at two replications.
After application, 5-8 adult aphids were placed on the artificial membrane inside the microtiter plate wells. The aphids were then allowed to suck on the treated aphid diet and incubated at about 23±1° C. and about 50±5% relative humidity for 3 days. Aphid mortality and fecundity was then visually assessed.

[4] = test system: Southern Armyworm (Spodoptera eridania), 2nd Instar Larvae; experiment: B.4 Southern armyworm, 2nd instar larvae, sprayed lima bean plants; settings: 96 h, 4 days after treatment, foliar spray, read-out: mortality in comparison with untreated controls
Description: B.4. Southern Armyworm (Spodoptera eridania), 2nd Instar Larvae
The active compounds were formulated by a Tecan liquid handler in 100% cyclohexanone as a 10,000-ppm solution supplied in tubes. The 10,000-ppm solution was serially diluted in 100% cyclohexanone to make interim solutions. These served as stock solutions for which final dilutions were made by the Tecan in 50% acetone:50% water (v/v) into 10 or 20 ml glass vials. A non-ionic surfactant (Kinetic@) was included in the solution at a volume of 0.01% (v/v). The vials were then inserted into an automated electrostatic sprayer equipped with an atomizing nozzle for application to plants/insects. Lima bean plants (variety Sieva) were grown 2 plants to a pot and selected for treatment at the 1st true leaf stage. Test solutions were sprayed onto the foliage by an automated electrostatic plant sprayer equipped with an atomizing spray nozzle. The plants were dried in the sprayer fume hood and then removed from the sprayer. Each pot was placed into perforated plastic bags with a zip closure. Ten to 11 armyworm larvae were placed into the bag and the bags zipped closed. Test plants were maintained in a growth room at about 25° C. and about 20-40% relative humidity for 4 days, avoiding direct exposure to fluorescent light (14:10 light:dark photoperiod) to prevent trapping of heat inside the bags. Mortality and reduced feeding were assessed 4 days after treatment, compared to untreated control plants.

[5] = test system: tobacco budworm (Heliothis virescens); experiment: B.2 Tobacco budworm, insect diet with eggs in microtiter plates; settings: 120 h, 5 days, egg and larval mortality, read-out: mortality in comparison with untreated controls
Description: B.2 Tobacco Budworm (Heliothis virescens)
For evaluating control of tobacco budworm (Heliothis virescens), the test unit consisted of 96-well-microtiter plates containing an insect diet and 15-25 H. virescens eggs.
The compounds were formulated using a solution containing 75% v/v water and 25% v/v DMSO. Different concentrations of formulated compounds were sprayed onto the insect diet at 10 μl, using a custom-built micro atomizer, at two replications.
After application, microtiter plates were incubated at about 28±1° C. and about 80±5% relative humidity for 5 days. Egg and larval mortality was then visually assessed.

[6] = test system: Orchid thrips; Dichromothrips corbetti; experiment: B.6 Orchid thrips, floral-immersion technique; settings: 300 ppm; 72 hours after treatment
Description: B.6 ANAPCO (Orchid thrips; Dichromothrips corbetti)
Dichromothrips corbetti adults used for bioassay are obtained from a colony maintained continuously under laboratory conditions. For testing purposes, the test compound is diluted in a 1:1 mixture of acetone:water (vol:vol), plus Kinetic at a rate of 0.01% v/v.
Thrips potency of each compound is evaluated by using a floral-immersion technique. Each orchid petal is dipped into treatment solution and allowed to dry in Petri dishes. Treated petals are placed into individual re-sealable plastic along with about 20 adult thrips. All test arenas are held under dark condition and a temperature of about 28° C. for duration of the assay. The percent mortality is recorded 72 hours after treatment.

[7] = test system: Black Bean Aphid; Aphis craccivora; experiment: B.7 Black bean aphid, sprayed potted bean plants; settings: 300 ppm; after 72 hours
Description: B.7 APHICR (Black Bean Aphid; Aphis craccivora)
The active compound is dissolved at the desired concentration in a mixture of 1:1 (vol:vol) distilled water:acetone. Surfactant (Kinetic) is added at a rate of 0.01% (vol/vol). The test solution is prepared at the day of use.
Potted (Kord traditional square pots Size 3″ and 2.5″ in depth) bush beans are cleaned with the apical leaves removed using pointed forceps, leaving only the cotyledon leaves. Plants are inoculated with about 30 mixed-stage aphid colony 24 hours before spraying. Potted bean plants are sprayed with the test solutions using a DeVilbiss hand atomizer (20-30 psi). Treated plants are allowed to air-dry in the laboratory for about an hour before placing them inside the holding room maintained at 27° C., 50% RH and […] conditions. Stem of the treated bean plants are inserted in the slit of cut circle filter paper to catch the falling dead aphids. Assessment of population reduction (% mortality) is done after 72 hours.

SMILES | mortality at 2500 ppm [1] [%] | mortality at 2500 ppm [2] [%] | mortality at 2500 ppm [3] [%] | mortality at 300 ppm [4] [%] | mortality at 2500 ppm [5] [%] | mortality at 9.9 ppm [3] [%] | % mortality in comparison to untreated controls, B.6 [6] [%] | % mortality in comparison to untreated controls, B.7 [7] [%] | mortality at 7.9 ppm [1] [%] | mortality at 7.9 ppm [3] [%]
CC(NC(=O)c1cc(Br)cc(C(F)(F)F)c1)c1nccnc1-c1ncn(CC(F)(F)F)n1 (centres unmarked) [Compound I1-1, 3-bromo-N-[1-[3-[1-(2,2,2-trifluoroethyl)-1,2,4-triazol-3-yl]pyrazin-2-yl]ethyl]-5-(trifluoromethyl)benzamide] | ≥ 75 | ≥ 75 | ≥ 75 | ≥ 75 | ≥ 75 |  |  |  |  | 
COc1ccc(Cn2cnc(-c3nccnc3C(C)NC(=O)c3cc(Cl)cc(C(F)(F)F)c3)n2)cc1 (centres unmarked) [Compound I1-4, 3-chloro-N-[1-[3-[1-[(4-methoxyphenyl)methyl]-1,2,4-triazol-3-yl]pyrazin-2-yl]ethyl]-5-(trifluoromethyl)benzamide] | ≥ 75 |  |  | ≥ 75 |  |  |  |  |  | 
CC(c1nccnc1-c1ncn(C(C)C)n1)N(C)C(=O)c1cc(Cl)cc(S(C)(=O)=O)c1 (centres unmarked) [Compound I1-5, 3-chloro-N-[1-[3-(1-isopropyl-1,2,4-triazol-3-yl)pyrazin-2-yl]ethyl]-N-methyl-5-methylsulfonyl-benzamide] | ≥ 75 | ≥ 75 | ≥ 75 | ≥ 75 |  |  |  |  |  | 
CC(NC(=O)c1cc(Cl)cc(S(C)(=O)=O)c1)c1nccnc1-c1ncn(C(C)C)n1 (centres unmarked) [Compound I1-7, 3-chloro-N-[1-[3-(1-isopropyl-1,2,4-triazol-3-yl)pyrazin-2-yl]ethyl]-5-methylsulfonyl-benzamide] | ≥ 75 | ≥ 75 | ≥ 75 | ≥ 75 |  |  |  |  |  | 
CC(NC(=O)c1cc(Cl)cc(C(F)(F)F)c1)c1nccnc1-c1ncn(CC=C(Cl)Cl)n1 (centres unmarked) [Compound I1-11, 3-chloro-N-[1-[3-[1-(3,3-dichloroallyl)-1,2,4-triazol-3-yl]pyrazin-2-yl]ethyl]-5-(trifluoromethyl)benzamide] | ≥ 75 | ≥ 75 |  |  | ≥ 75 |  |  |  |  | 
CC(NC(=O)c1cc(C(F)(F)F)cc(C(F)(F)F)c1)c1nccnc1-c1ncn(C)n1 (centres unmarked) [Compound I1-12] | ≥ 75 | ≥ 75 | ≥ 75 | ≥ 75 | ≥ 75 | 100 | 100 | 100 |  | 
CC(NC(=O)c1cc(C(F)(F)F)cc(C(F)(F)F)c1)c1nccnc1-c1ncn(CC(F)(F)F)n1 (centres unmarked) [Compound I1-13] | ≥ 75 | ≥ 75 | ≥ 75 | ≥ 75 | ≥ 75 |  | 100 |  | 100 | 100
CC(NC(=O)c1cc(Cl)cc(C(F)(F)F)c1)c1nccnc1-c1ncn(CC2CC2(Cl)Cl)n1 (centres unmarked) [Compound I1-14, 3-chloro-N-[1-[3-[1-[(2,2-dichlorocyclopropyl)methyl]-1,2,4-triazol-3-yl]pyrazin-2-yl]ethyl]-5-(trifluoromethyl)benzamide] | ≥ 75 | ≥ 75 | ≥ 75 | ≥ 75 | ≥ 75 |  |  |  |  | 
CC(NC(=O)c1cc(Cl)nc(Cl)c1)c1nccnc1-c1ncn(-c2ccccc2)n1 (centres unmarked) [Compound I2-1, 2,6-dichloro-N-[1-[3-(1-phenyl-1,2,4-triazol-3-yl)pyrazin-2-yl]ethyl]pyridine-4-carboxamide] | ≥ 75 | ≥ 75 | ≥ 75 |  |  |  |  |  |  | 
Cc1cnn(-c2nccnc2C(C)NC(=O)c2cc(C(F)(F)F)cc(C(F)(F)F)c2)n1 (centres unmarked) [WO 2021/037614 P1, reference compound] |  |  |  |  |  | 0 | 0 | 0 |  | 
CC(NC(=O)c1cc(C(F)(F)F)cc(C(F)(F)F)c1)c1nccnc1-n1cncn1 (centres unmarked) [WO 2021/037614 P46, reference compound] |  |  |  |  |  | 25 | 0 | 50 | 50 | 0
